For 3 compounds, IC50 and Kd results are on record in article doi:10.1101/2023.04.09.536153v2, “Reinstating targeted protein degradation with DCAF1 PROTACs in CRBN PROTAC resistant settings” (biorxiv, 2023).

Like-named read-outs stand apart in the source and are kept apart here.

Test [1] addresses T1, DCAF1(1073-1399)_E1398S (WDR domain, Avi/His-tagged) (Homo sapiens, UniProt Q9Y4B6, E1398S).
T1 construct: WDR (WD40) domain 1073-1399 with E1398S; Avi and His tags (N-terminal Avi, C-terminal His for SPR; C-terminal Avi-His for TR-FRET), biotinylated by BirA; Sf9 cells
The test can be described thus: TR-FRET competition with bodipy ligand. Particulars: 30 mM phosphate pH 7.4, 140 mM NaCl, 22 °C, no BTK added. The class given is binding. Background: In TR-FRET formats the signal depends on donor and acceptor labels being close together.

In test [2] the target is T1, DCAF1(1073-1399)_E1398S (WDR domain, Avi/His-tagged). Nature of the test: fluorescence polarization. In kind it is binding. In general terms: Fluorescence polarisation rises when a labelled molecule tumbles more slowly, as on binding a larger partner.
The target of another test is T2, BTK-NanoLuc (Homo sapiens, UniProt Q06187).
T2 construct: full-length BTK fused to NanoLuc (pLenti6 BTK-Nanoluc), transiently expressed in HEK293-A cells
T2 sequence (Q06187 2-659): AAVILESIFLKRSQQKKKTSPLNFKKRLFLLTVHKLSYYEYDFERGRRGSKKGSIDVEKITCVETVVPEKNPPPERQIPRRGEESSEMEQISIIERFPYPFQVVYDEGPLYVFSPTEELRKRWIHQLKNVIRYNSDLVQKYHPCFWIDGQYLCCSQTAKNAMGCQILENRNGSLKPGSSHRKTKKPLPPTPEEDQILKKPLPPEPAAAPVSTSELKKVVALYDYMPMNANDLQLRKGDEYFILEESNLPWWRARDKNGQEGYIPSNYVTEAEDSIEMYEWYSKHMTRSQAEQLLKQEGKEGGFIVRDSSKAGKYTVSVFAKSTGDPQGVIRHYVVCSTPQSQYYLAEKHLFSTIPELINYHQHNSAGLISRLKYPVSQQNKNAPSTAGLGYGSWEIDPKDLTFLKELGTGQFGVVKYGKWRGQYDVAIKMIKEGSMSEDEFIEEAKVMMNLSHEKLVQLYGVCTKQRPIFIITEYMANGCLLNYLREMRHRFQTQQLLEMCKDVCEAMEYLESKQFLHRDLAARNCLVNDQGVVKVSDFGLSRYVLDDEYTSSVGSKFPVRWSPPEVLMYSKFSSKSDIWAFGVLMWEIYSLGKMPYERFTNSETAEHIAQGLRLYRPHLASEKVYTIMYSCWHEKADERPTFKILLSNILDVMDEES
Nature of the test: NanoBRET tracer displacement. The class given is cell-based. The settings on record: digitonin-permeabilized cells, 0.5 µM Tracer-05, 2 h; ATP site.

The target in test [3] is T3, BTK kinase domain (389-659) (Homo sapiens, UniProt Q06187).
T3 construct: kinase domain 389-659; His-PreScission (with or without Avi) construct, Sf9 cells
T3 sequence (Q06187 389-659): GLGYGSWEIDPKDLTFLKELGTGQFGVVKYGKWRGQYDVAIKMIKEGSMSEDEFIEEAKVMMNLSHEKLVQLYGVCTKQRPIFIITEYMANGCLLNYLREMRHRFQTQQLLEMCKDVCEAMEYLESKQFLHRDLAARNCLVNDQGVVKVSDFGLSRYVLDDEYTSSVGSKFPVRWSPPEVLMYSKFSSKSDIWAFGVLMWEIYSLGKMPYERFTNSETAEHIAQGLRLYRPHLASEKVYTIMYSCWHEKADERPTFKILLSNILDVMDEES
The test can be described thus: kinase inhibition, Caliper mobility shift. The settings on record: 0.047 mM ATP, 0.002 mM peptide, pH 7.5, 32 °C, 60 min. The class given is biochemical. The source says: kinase inhibition, Caliper mobility shift on BTK kinase domain (389-659) | weaker affinity for BTK of the DBt-6 and DBt-8 was additionally corroborated by enzymatic inhibition

T1 sequence (Q9Y4B6 1073-1399 E1398S): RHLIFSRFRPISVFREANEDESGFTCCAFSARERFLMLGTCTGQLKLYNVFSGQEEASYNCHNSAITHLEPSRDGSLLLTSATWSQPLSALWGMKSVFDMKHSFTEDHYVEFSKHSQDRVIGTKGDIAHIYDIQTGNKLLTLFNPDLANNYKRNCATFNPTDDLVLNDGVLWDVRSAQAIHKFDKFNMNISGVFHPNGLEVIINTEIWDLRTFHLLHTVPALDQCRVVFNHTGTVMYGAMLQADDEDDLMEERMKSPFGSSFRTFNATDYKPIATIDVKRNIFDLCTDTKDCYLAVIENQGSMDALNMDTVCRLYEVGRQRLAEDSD

As for `CC(=O)N1CCN(c2ccc3c(NCCN)nc(C4(c5ccc(Cl)cc5)CCCCC4)nc3c2)CC1` [compound 13, VHF543], the IC50 (as a rule, the concentration that gives 50% inhibition) in test [1] is listed as “IC50 determined by DCAF1 TR-FRET for selected DCAF1 binders”.

As for `Cc1cc(C)n2c1C=C1C=CC(CCC(=O)N3CCN(c4ccc5c(NCCN)nc(C(C)(C)c6ccc(Cl)cc6)nc5c4)CC3)=[N+]1[B-]2(F)F` [bodipy labelled ligand], the Kd (in general, a measure of binding affinity in units of concentration) in test [2] was 69 ± 6 nM.

With `Cc1c(NC(=O)c2ccc(C(C)(C)O)cc2F)cc(F)cc1-c1ncnc2[nH]c(-c3ccc(CNCCOCCOCC(=O)N4CCCC(C(=O)N5CCN(c6ccc7c(NCCN)nc(C8(c9ccc(Cl)cc9)CCCCC8)nc7c6)CC5)C4)cc3)cc12` (centres unmarked) [DBt-6], the IC50 is 56 ± 37 nM in test [1] (read-out: IC50), 2350 nM on BTK-NanoLuc and 510 nM in test [3].
